The record followed here is patent US7825134B2, “Amelioration of cataracts, macular degeneration and other ophthalmic diseases” (Othera Holding, Inc., priority 2003, dated 2010).

Entries after “also recorded” stand apart in the source; their conditions may differ. Where a name gives a salt, the structure may show the parent alone. Where only a bound is given, the exact number is not on record here.

Data set [1] in a line: Identification of metabolites of Compound 1 in rabbit aqueous humor (GC/MS). The class given is in vivo. The settings on record: GC/MS of rabbit aqueous humor after topical dosing. The method, then: Aqueous humor samples, from the in vivo rabbit study described in Example 16 were identified by GC/MS for the presence of compound 1 and its metabolites, tempol-H and carboxylic acid (R1COOH), formed by hydrolysis of compound 1 by ocular esterases. Both the metabolites were observed but not Compound 1.
A sample of aqueous humor was freeze dried in a 10 mL amber colored glass vial containing a tiny magnetic bar. To this was added 1 mL of methylene chloride and the solution was stirred for two minutes and allowed to stand for five minutes. A 3 μL aliquot of the methylene chloride layer was injected into the GC column. The cyclopropanecarboxylic acid was detected by a mass spectrometer detector at 13.02 (retention time) with m/z=85 (GC model […] series II (both made by HP)). Agilent DB-5 column 25 m length, 0.2 mm diameter was used. Carrier gas He at 22 cm/sec. Inlet temperature was 250° C., detector 280° C. For every injection, the temperature was held at 35° C. for 5 minutes, then was increased to 240° C. at 10° C./min, and was held at 240° C. for 3 minutes. Splitless injection was used.

Data set [2] is described as follows: Pharmacokinetics and ocular tissue distribution of total radioactivity after single topical dose. The data set is classed as in vivo, New Zealand White (Harlan) rabbits. The method, then: Pharmacokinetics, Ocular Tissue Distribution, and Urinary Excretion of Total Radioactivity Following Single Topical Dose Administration of Compound 1 in Rabbits. The pharmacokinetics, ocular tissue distribution and urinary excretion of total radioactivity following a single topical dose administration of the tritiated hydrochloride of Compound 1 in rabbits was evaluated. Eighteen male New Zealand White (Harlan) rabbits, age 3-6 months, weight 2.1 to 3.0 kg were utilized.
Experimental Design: The experimental design was a randomized, single-treatment study in one group of rabbits administered a single topical application of [^3H]Compound 1-HCl into both eyes. The group consisted of 6 subgroups of 3 animals. At six specified times (0.5, 1, 2, 4, 8 and 24 hours) post-dose, three animals per subgroup were euthanized and terminal samples collected. Animals designated to the 24 hour post-dose subgroup were placed in metabolism cages and urine was collected from 0-12 and 12-24 hours post-dose. Terminal blood was collected by cardiac puncture technique. From each eye, the following ocular tissues were harvested: aqueous humor; vitreous humor; lens; and cornea. Total radioactivity was determined in all samples.
Animals received a single topical ocular dose in each eye, right (OD) followed by left (OS). While slightly pulling away the lower eyelid from the globe, the dose was accurately pipetted onto the cornea and allowed to collect in the lower conjunctival sac. The eyelids were gently held shut for 1 minute after drug instillation and then carefully released.
Data analysis and statistical evaluation: Counts per minute for all assayed samples were converted to disintegrations per minute (DPM) using a Beckman LS6000 counter. Following appropriate background subtraction, DPM values were converted to concentrations (DPM per ml or g). Average DPM per ml or g values were calculated. Mean concentration values of ^3H radioactivity were calculated and converted to equivalents per ml or g based on the measured specific activity and nominal concentration of the administered test article formulation as determined by oxidation. Concentrations of total radioactivity in blood and plasma, amount (% of dose) and concentration in ocular tissue and urine samples were determined. Elimination kinetics including blood, plasma, and tissue half-lives were calculated. Urinary excretion data were also tabulated. Statistical evaluation consisted of descriptive statistical analysis. Pharmacokinetics of radioactivity were evaluated by model independent analyses pending suitability of sample assay results. Non-truncated numerical values were used in the calculations.

The nature of data set [3]: Aqueous solubility at room temperature. The class given is physicochemical. The note with it: thermodynamic from solid. An excerpt: It may be preferred that at least 0.1% solubility is needed for an eye drop, even for a suspension formulation. Completely water-insoluble compounds may not be effective. Esters that are soluble in water (>0.1% weight by volume) are preferred. Esters with less than 0.1% solubility may be used in the form of suspensions or ointments or other formulations. […]

The test system of a further data set is rabbit eyes. In words: Tolerance in vivo in rabbit eyes. Also on record: species or system rabbits. As to the method: Eyedrops containing 3.5% compound 1 were administered six times, at 1-hour intervals, to each eye of two conscious rabbits.
It was previously established that dosing rabbits with a 3% solution of Compound 1, 4 times daily, for one week caused no toxicity.

Data set [4] in a line: Drug penetration of organ cultured rat lenses (ESR). The class given is in vitro ADME, Sprague-Dawley rats. The settings on record: for Concentration of tempol-H in lens water: Sprague-Dawley, rat, 4 mM. The method, then:
Method: Rat lenses were cultured as follows: Rat lenses were obtained from Sprague-Dawley rats. The lenses were incubated in 24-well cluster dishes in modified TC-199 medium and were placed in a 37° C. incubator with a 95% air/5% CO2 atmosphere. The lenses were incubated in 2 ml of culture medium, which was adjusted to 300 milliosmoles (mOsm). […] In one experiment, lenses were incubated for 4 hours and dissected into epithelial, cortical and nuclear sections before analysis.

The subject of data set [5] is ARPE-19 cells that have accumulated A2E. In words: Protection against A2E-mediated blue light damage in RPE cells. The class given is cell-based. The note with it: 24 hours pre-treatment; 430+/−20 nm light; MTT and two-color fluorescence assays; FIG. 3 and FIG. 4. The method, then: Materials and Methods: ARPE-19 cells that have accumulated A2E in culture were exposed to 430+/−20 nm light delivered from a halogen source. This wavelength of light is relevant since (i) the excitation maximum of A2E is approximately 430 nm, and (ii) light of this wavelength reaches the RPE in vivo while light of wavelengths […] by the cornea and lens. Cell death in blue light-illuminated A2E-laden RPE was compared with and without pre-treatment (24 hours) with tempol-H. The loss of cell viability was quantified by: • 1. A calorimetric microtiter assay based on ability of healthy metabolically active cells to cleave the yellow tetrazolium salt MTT to purple formazan crystals. Cell viability was assessed 24 hours after blue light illumination. Triplicate wells were assayed in each of 2 experiments. • 2. Two-color fluorescence assay in which the nuclei of all dead cells appear red due to staining by a membrane-impermeant dye (Dead Red nuclei acid stain, Molecular Probes) with the nuclei of all cells stained blue with DAPI. Cell viability was assessed 8 hours after blue light illumination. Replicates were assayed by counting cells within 5 microscopic fields within the area of illumination in each well and 3 wells were assayed per experiment. Data are based on of 3 experiments.

Data set [6] can be described thus: Measured octanol/water partition coefficient. The class given is physicochemical. From the text:
Esters are selected for these tests based on their calculated or measured octanol/water partition coefficient (P). Hydrophilic compounds such as tempol-H cannot penetrate the lipophilic epithelial layer of the cornea. Partition coefficients of tempol-H and esters that penetrate are as follows: […]

Data set [7] is described as follows: Absorption across the cornea: aqueous humor tempol-H after topical eye drops (ESR). The class given is in vivo, New Zealand White rabbits. The note with it: all time points (30, 60, 120 minutes) after topical 3.5% solution. As to the method: Groups of six New Zealand White rabbits were used in the study to evaluate the absorption of tempol-H and compound 1. The test compounds were prepared in sterile saline solutions at a concentration of 3.5% weight by volume. The animals were held in restraining boxes during instillation of eye drops, 50 μL in each eye, using a micropipette. After dosing, the eye was gently held closed for 60 seconds. The rabbits were dosed twice daily for 4 consecutive days. On the fifth day, rabbits were dosed once and then euthanized at 30 minutes post dose (2 rabbits), 60 minutes post-dose (2 rabbits) and at 120 minutes post-dose (2 rabbits). Immediately after euthanization, aqueous humor was collected from each rabbit. The aqueous concentration of tempol-H in each sample was measured using the electron spin resonance (ESR) method.

Where [8] appears, read: 30 minutes post-dose, single drop (40 ul) of 3% solution, total radioactivity.

On to `CC1(C)CC(OC(=O)c2ccco2)CC(C)(C)N1O.Cl`, for which the melting point was in the range of 209.4 to 210.4 °C.
Same read-out and setting: next, `CCOCC(C)(C)C(=O)OC1CC(C)(C)N(O)C(C)(C)C1.Cl`: 140 to 142 °C (dec.).
Regarding `CC1(C)CC(OC(=O)C2CC2)CC(C)(C)N1O.Cl` [Compound 1, 1-hydroxy-4-cyclopropanecarbonyloxy-2,2,6,6-tetramethylpiperidine Hydrochloride], the “Conversion to metabolites (tempol-H and carboxylic acid) in aqueous humor” value in data set [1] is given as “completely converted to its metabolites”. Also, in data set [2] (setting [8]), the “Peak concentration, Blood” value came out at 240 nanogram equivalents/gram. In addition, in data set [2] (setting [8]), the “Peak concentration, Plasma” value came to 360 nanogram equivalents/gram. Moreover, in data set [2] (setting [8]), the “Peak tissue concentration, Aqueous” value was determined as 5930 nanogram equivalents/gram. Besides, the “Peak tissue concentration, Cornea” value in [2] (setting [8]) is 13090 nanogram equivalents/gram. Also, in data set [2] (setting [8]), the “Peak tissue concentration, Lens” value turned out to be 310 nanogram equivalents/gram. Further, the “Peak tissue concentration, Vitreous” value in data set [2] (setting [8]) amounted to 150 nanogram equivalents/gram. Also, the “Radioactivity in tissues at 24 hours post-dose” value in data set [2] (all tissues, FIG. 2) is on record as “still measurable in all tissues”. Further, the solubility stood at 68.6 mg/mL in [3] (0.01 M acetate buffer, pH 4.8, aqueous buffer, 0.01 M Acetate buffer at pH 4.8, room temperature); 71.1 mg/mL in [3] (0.01 M citrate buffer, pH 4.8, aqueous buffer, 0.01 M Citrate buffer at pH 4.8, room temperature); 40.5 mg/mL in [3] (0.9% sodium chloride, saline or isotonic, room temperature); 62.2 mg/mL in [3] (water with 1% w/v glycerin, water, Water + 1% w/v glycerin, room temperature); 63.8 mg/mL in data set [3] (water with 1% w/v propylene glycol, water, Water + 1% w/v propylene glycol, room temperature); 74.9 mg/mL in [3] (water, room temperature). Besides, in the data set with rabbit eyes (3% solution, 4 times daily, for one week), the Toxicity result was “no toxicity”. Further, the Ocular tolerance entry with rabbit eyes (eyedrops 3.5%, six times at 1-hour intervals, each eye of two conscious rabbits) was “well tolerated and no adverse findings were noted”.
Regarding `CC(C)(CO)C(=O)OC1CC(C)(C)N(O)C(C)(C)C1` [Example 10, 1-hydroxy-4-(3′-hydroxy-2′,2′-dimethyl)propanecarbonyloxy-2,2,6,6-tetramethylpiperidine Hydrochloride], the solubility in data set [3] (water, room temperature) is > 35 mg/mL.
Consider `CC1(C(=O)OC2CC(C)(C)N(O)C(C)(C)C2)CC1.Cl` [Example 12, 1-hydroxy-4-(1-methyl-cyclopropane)carbonyloxy-2,2,6,6-tetramethylpiperidine Hydrochloride], for which the melting point was 215 to 220 °C (dec.). Further, in data set [3] (water, room temperature), the solubility is ≥ 1 mg/mL.
For `CC1(C)CC(OC(=O)C2CCOC2)CC(C)(C)N1O.Cl` (stereo not drawn) [Example 16, 1-hydroxy-4-(3′-tetrahydrofuran)carbonyloxy-2,2,6,6-tetramethylpiperidine Hydrochloride], in [3] (water, room temperature), the solubility was > 35 mg/mL.
With `CC1(C)CC(O)CC(C)(C)N1O` [Tempol-H, 1,4-dihydroxy-2,2,6,6-tetramethylpiperidine], the “Concentration of tempol-H in lens water” value in data set [4] (1 h) came out at 400 µM; in data set [4] (2 h) it was 800 µM; in [4] (4 h), 1000 µM. The “Protection against the death of blue light-illuminated A2E-laden RPE” value in data set [5] is given as “dose-dependent protection; also recorded: protect”. In addition, the “P (measured)” value in [6] turned out to be 0.5. Moreover, in data set [7], the “Aqueous humor levels of tempol-H” value is “below detectable limits”.
With `CC1(C)CC(O)CC(C)(C)N1[O]` [tempol], in data set [4] (4-hour incubation with tempol), the “Share in the oxidized form in the epithelium” value is recorded as “about 5%”. In addition, in [4] (after incubation with 4.0 mM tempol), the “Oxidized form tempol found in the lens” value is ≤ 5%.
